Data from ChEMBL document CHEMBL1132065, “Synthesis and biological activity of oxo-7H-benzo[e]perimidine-4-carboxylic acid derivatives as potent, nonpeptide corticotropin releasing factor (CRF) receptor antagonists” (Bioorg Med Chem Lett, 1999).

Key:
[1] = molecular target: T1, Corticotropin-releasing factor receptor 2 (Mus musculus, UniProt Q60748); experiment: Antagonistic activity against [125I]-Tyr-ovine CRF binding to Corticotropin releasing factor receptor 2 beta
[2] = molecular target: T2, Corticotropin-releasing factor receptor 1 (Rattus norvegicus, UniProt P35353); experiment: Antagonistic activity against [125I]-Tyr-ovine CRF binding to Corticotropin releasing factor receptor 1
T2 sequence (P35353 whole entry): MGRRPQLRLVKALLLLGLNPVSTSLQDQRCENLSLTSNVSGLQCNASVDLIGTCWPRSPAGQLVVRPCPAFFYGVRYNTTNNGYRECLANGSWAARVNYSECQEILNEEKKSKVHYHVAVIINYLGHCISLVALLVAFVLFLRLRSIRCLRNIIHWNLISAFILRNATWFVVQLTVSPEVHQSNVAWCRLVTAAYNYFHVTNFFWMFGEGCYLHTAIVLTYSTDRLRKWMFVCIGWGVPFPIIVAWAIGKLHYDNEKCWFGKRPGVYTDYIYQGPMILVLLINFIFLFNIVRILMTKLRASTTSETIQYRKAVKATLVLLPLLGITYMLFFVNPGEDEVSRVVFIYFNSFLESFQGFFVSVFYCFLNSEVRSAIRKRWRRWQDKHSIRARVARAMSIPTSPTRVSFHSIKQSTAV

[3] = Binding affinity against Glucagon receptor using [125I]glucagon
[4] = molecular target: T3, Neuropeptide Y receptor type 1 (Homo sapiens, UniProt P25929); experiment: Binding affinity against Neuropeptide Y receptor type 1 using [125I]PYY
T3 sequence (P25929 whole entry): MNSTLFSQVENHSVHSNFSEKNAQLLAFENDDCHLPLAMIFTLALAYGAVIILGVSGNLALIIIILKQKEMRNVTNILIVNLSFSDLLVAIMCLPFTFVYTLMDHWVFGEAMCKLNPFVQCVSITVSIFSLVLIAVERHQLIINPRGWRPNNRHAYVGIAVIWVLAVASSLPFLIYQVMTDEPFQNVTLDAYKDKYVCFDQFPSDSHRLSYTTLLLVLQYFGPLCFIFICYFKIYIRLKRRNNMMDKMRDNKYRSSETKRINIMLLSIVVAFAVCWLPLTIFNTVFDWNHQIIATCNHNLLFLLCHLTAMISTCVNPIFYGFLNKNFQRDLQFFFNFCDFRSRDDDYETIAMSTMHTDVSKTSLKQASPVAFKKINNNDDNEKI

[5] = molecular target: 5-hydroxytryptamine receptor 6 (Homo sapiens, UniProt P50406); experiment: Binding affinity against 5-hydroxytryptamine 6 receptor
[6] = molecular target: 5-hydroxytryptamine receptor 7 (Homo sapiens, UniProt P34969); experiment: Binding affinity against 5-hydroxytryptamine 7 receptor
[7] = Binding affinity to Glp1 receptor using [125I]Glp-1 as radioligand
[8] = Binding affinity against Galanin receptor; parameters: species or system Homo sapiens
D(2) dopamine receptor = D(2) dopamine receptor (Homo sapiens, UniProt P14416); experiment: Binding affinity against dopamine D2 receptor
[9] = molecular target: T1, Corticotropin-releasing factor receptor 2; experiment: Antagonistic activity against [125I]-Tyr-ovine CRF binding to Corticotropin releasing factor receptor 2 beta (30% inhibition at 100 uM)

T1 sequence (Q60748 whole entry): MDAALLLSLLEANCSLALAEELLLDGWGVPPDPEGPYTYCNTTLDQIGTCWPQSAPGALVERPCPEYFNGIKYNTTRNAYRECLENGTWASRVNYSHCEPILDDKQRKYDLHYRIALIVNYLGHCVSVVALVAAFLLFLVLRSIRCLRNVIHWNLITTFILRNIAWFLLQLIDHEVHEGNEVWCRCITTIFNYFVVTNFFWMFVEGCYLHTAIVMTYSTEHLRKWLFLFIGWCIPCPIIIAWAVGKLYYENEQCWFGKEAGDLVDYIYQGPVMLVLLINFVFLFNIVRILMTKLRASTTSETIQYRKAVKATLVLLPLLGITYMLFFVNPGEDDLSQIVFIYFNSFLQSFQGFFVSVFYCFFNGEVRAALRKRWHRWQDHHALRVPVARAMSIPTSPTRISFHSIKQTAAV
Sequence of 5-hydroxytryptamine receptor 7 (P34969 whole entry): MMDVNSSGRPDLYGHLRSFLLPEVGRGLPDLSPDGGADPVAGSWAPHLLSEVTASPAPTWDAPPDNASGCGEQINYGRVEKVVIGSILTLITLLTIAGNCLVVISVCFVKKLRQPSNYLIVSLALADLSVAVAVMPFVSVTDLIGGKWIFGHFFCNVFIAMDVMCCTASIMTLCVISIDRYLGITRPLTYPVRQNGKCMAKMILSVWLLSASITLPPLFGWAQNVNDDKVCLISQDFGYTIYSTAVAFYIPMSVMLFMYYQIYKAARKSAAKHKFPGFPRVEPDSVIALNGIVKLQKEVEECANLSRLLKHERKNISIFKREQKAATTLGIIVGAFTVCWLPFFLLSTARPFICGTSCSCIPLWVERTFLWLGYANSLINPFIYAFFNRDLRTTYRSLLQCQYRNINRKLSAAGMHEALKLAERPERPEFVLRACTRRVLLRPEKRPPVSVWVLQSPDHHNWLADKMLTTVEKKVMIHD
Sequence of 5-hydroxytryptamine receptor 6 (P50406 whole entry): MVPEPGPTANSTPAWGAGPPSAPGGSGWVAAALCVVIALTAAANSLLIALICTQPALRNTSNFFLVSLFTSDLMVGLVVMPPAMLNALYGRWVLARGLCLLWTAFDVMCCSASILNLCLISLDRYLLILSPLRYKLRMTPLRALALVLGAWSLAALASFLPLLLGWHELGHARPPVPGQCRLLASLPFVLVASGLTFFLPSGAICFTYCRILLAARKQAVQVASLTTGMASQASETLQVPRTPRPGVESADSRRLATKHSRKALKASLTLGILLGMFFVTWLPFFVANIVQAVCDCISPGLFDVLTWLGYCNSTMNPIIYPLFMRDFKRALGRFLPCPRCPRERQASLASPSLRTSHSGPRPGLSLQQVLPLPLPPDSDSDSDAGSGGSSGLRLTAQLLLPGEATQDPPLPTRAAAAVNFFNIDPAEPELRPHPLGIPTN
Sequence of D(2) dopamine receptor (P14416 whole entry): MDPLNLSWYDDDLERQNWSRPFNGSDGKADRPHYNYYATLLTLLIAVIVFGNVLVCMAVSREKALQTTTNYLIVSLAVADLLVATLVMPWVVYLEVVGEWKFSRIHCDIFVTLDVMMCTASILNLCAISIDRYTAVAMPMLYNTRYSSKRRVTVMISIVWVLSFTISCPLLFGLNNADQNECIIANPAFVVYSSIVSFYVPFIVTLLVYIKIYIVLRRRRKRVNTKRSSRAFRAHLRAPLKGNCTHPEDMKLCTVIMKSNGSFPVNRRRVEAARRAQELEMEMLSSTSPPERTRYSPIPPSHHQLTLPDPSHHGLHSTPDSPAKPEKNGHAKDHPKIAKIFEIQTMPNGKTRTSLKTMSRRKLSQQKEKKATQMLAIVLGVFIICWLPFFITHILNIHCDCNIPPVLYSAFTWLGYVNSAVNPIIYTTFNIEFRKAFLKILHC

| SMILES | Ki [1] [nM] | Ki [2] [nM] | further results |
| --- | --- | --- | --- |
| NCCNC(=O)c1c2c(c3c4c(ncnc14)-c1ccccc1C3=O)N[C@H]1CCCC[C@@H]1N2 | 75 | 200 | – |
| NCCNC(=O)c1c2c(c3c(O)c4ccccc4c4ncnc1c34)=N[C@H]1CCCC[C@H]1N2 | 830 | 270 | – |
| N[C@@H]1CCCC[C@H]1NC(=O)c1c2c(c3c(O)c4ccccc4c4ncnc1c34)=N[C@H]1CCCC[C@@H]1N2 | 86 | 180 | – |
| NCCNC(=O)c1ccc2c3c(ncnc13)-c1ccccc1C2=O | > 10000 | > 10000 | – |
| N[C@H]1CCCC[C@@H]1NC(=O)c1c2c(c3c4c(ncnc14)-c1ccccc1C3=O)N[C@@H]1CCCC[C@H]1N2 | 20 | 110 | Ki [3]: > 10000 nM; Ki [4]: 4200 nM; Ki [5]: > 10000 nM; Ki [6]: 1600 nM; Ki [7]: > 10000 nM; Ki [8]: > 10000 nM; Ki (D(2) dopamine receptor): 3200 nM |
| CN(C)C(=O)c1ccc2c3c(ncnc13)-c1ccccc1C2=O | > 10000 | – | – |
| NCCNC(=O)c1c2c(c3c(O)c4ccccc4c4ncnc1c34)=N[C@@H]1CCCC[C@H]1N2 | 45 | 160 | – |
| N[C@H]1CCCC[C@H]1NC(=O)c1ccc2c3c(ncnc13)-c1ccccc1C2=O | > 10000 | > 10000 | – |
| O=C(O)c1ccc2c3c(ncnc13)-c1ccccc1C2=O | – | – | Ki [9]: > 100000 nM |
| NCCNC(=O)c1c2c(c3c(O)c4ccccc4c4ncnc1c34)=NCCN2 | 650 | 2050 | – |
| N[C@@H]1CCCC[C@H]1NC(=O)c1ccc2c3c(ncnc13)-c1ccccc1C2=O | > 10000 | > 10000 | – |
